Measured values published in US6495152B2, “Sulfur containing polyhydroxyalkanoate compositions and method of production” (Tepha, Inc., priority 2000, dated 2002).

Legend:
P. putida = assay: Growth on MSM agar plates containing ATAs as sole carbon sources; format: cell-based, Pseudomonas putida KT2440; parameters: key to Growth on MSM agar plates: +: growth; ++: good growth; −: no growth; *: thiol odor detected; settings: sole carbon source; for Growth on MSM agar plates: P. putida
From the text: (§1) Bacterial strains and culture conditions. The PHA-negative mutant R. eutropha PHB^−4 (DSM 541) and a recombinant strain of R. eutropha PHB^−4 harbouring plasmid pBBR1::phaC1 expressing the PHA synthase 1 of Pseudomonas mendocina, as well as Pseudomonas putida KT2440 (Worsey & Williams, “Metabolism of toluene and xylenes by Pseudomonas putida (arvilla) mt-2: evidence for a new function of the TOL plasmid” in J Bacteriol 124:7-13 (1975)), P. aeruginosa PAO1 (ATCC 15692), P. oleovorans (ATCC 29347), and P. mendocina (DSM 50017) were used. Cultivations were performed in nutrient broth (NB) medium or mineral salts medium (MSM) according to Schlegel (1961), supra, to which different alkylthioalkanoic acids were added as carbon sources from filter-sterilized 10% (w/v) stock solutions at the concentrations indicated in the text. Fed batch cultivations were carried out under aerobic conditions at 30° C. in 2 l Erlenmeyer flasks containing 500 ml of medium which were agitated at 130 r.p.m. In order to promote PHA accumulation, the ammonia concentration was reduced to 0.05% (w/v) in MSM.
(§2) Growth and PHA accumulation of bacteria on alkylthioalkanoic acids. To evaluate the capabilities of various pseudomonades to use alkylthioalkanoic acids (ATAs) as carbon and energy sources for the synthesis of sulfur containing PHAs, growth experiments were carried out employing MSM agar plates which contained propylthioundecanoic acid (PTUD), propylthiooctanoic acid (PTO), octylthiohexanoic acid (OTHx), butylthiovaleric acid (BTV), or propylthiopropionic acid (PTP) as carbon sources.

P. mendocina = assay: as above; format: cell-based, Pseudomonas mendocina; parameters: key: +: growth; ++: good growth; −: no growth; *: thiol odor detected; settings: sole carbon source
From the text: as §1, §2

P. aeruginosa = assay: as above; format: cell-based, Pseudomonas aeruginosa PAO1; parameters: key: +: growth; ++: good growth; −: no growth; *: thiol odor detected; settings: sole carbon source
From the text: as §1, §2

P. oleovorans = assay: as above; format: cell-based, Pseudomonas oleovorans; parameters: key: +: growth; ++: good growth; −: no growth; *: thiol odor detected; settings: sole carbon source
From the text: as §1, §2

Pseudomonas strains = assay: Growth experiments of pseudomonades on alkylthioalkanoic acids; format: cell-based; settings: for Use as sole carbon source for growth: all Pseudomonas strains investigated; for Concentration above which cell growth was impaired: pseudomonades
From the text: as §1, §2

[1] = test system: R. eutropha PHB-4 harboring pBBR1::phaC1; assay: Growth in MSM containing PTO as the sole carbon source; format: cell-based
From the text: as §1
Since growth of R. eutropha PHB-4 harboring pBBR1::phaC1 in MSM containing PTO as the sole carbon source was very poor, cultivations were carried out in complex medium (NB) or in MSM containing sodium gluconate as second utilizable carbon source in addition to PTO. […]

R. eutropha = assay: Growth experiments in mineral salts medium with sulfur-containing carbon sources; format: cell-based, R. eutropha H16; settings: for Use as sole carbon source for growth: R. eutropha strain H16
Method: (§3) Bacterial strains and culture conditions. R. eutropha H16 (DSM 428) and R. eutropha PHB^−4 (DSM 541) were cultivated in nutrient broth (NB) growth medium or in mineral salts medium (MSM) (Schlegel et al., (1961) Arch. Mikrobiol. 38, 209-222) at 30° C. in Erlenmeyer flasks under aerobic conditions on a rotary shaker with 130 strokes/min. In order to promote PHA accumulation, the ammonia concentration was reduced to 0.05% (w/v). Carbon sources were added from filter-sterilized 20% (w/v) stock solutions at the concentrations indicated in the text.
as §3, with “PHB-4” for “PHB^−4”, “(Schlegel, 1961, supra)” for “(Schlegel et al., (1961) Arch. Mikrobiol. 38, 209-222)”, “filter-sterilized” for “filter-sterilized 20% (w/v)”

propylthiooctanoic acid [PTO]
Growth on MSM agar plates (P. putida; 0.4% (w/v)): +
Growth on MSM agar plates (P. mendocina; 0.4% (w/v)): ++
Growth on MSM agar plates (P. aeruginosa; 0.4% (w/v)): +
Growth on MSM agar plates (P. oleovorans; 0.4% (w/v)): +
Use as sole carbon source for growth (Pseudomonas strains): able to use
Concentration above which cell growth was impaired (Pseudomonas strains): higher than 0.8 % (w/v)
Growth with the substance as the sole carbon source [1]: very poor

octylthiohexanoic acid [OTHx]
Growth on MSM agar plates (P. putida; 0.6% (w/v)): ++
Growth on MSM agar plates (P. mendocina; 0.6% (w/v)): ++
Growth on MSM agar plates (P. aeruginosa; 0.6% (w/v)): ++
Growth on MSM agar plates (P. oleovorans; 0.6% (w/v)): ++
Use as sole carbon source for growth (Pseudomonas strains): able to use

propylthioundecanoic acid [PTUD]
Growth in comparison to other pseudomonades (P. putida; P. putida KT2440): significantly lower
Growth on MSM agar plates (P. putida; 0.4% (w/v)): +*
Growth on MSM agar plates (P. mendocina; 0.4% (w/v)): ++*
Growth on MSM agar plates (P. aeruginosa; 0.4% (w/v)): ++*
Growth on MSM agar plates (P. oleovorans; 0.4% (w/v)): ++*
Use as sole carbon source for growth (Pseudomonas strains): able to use

CC(S)CC(=O)O (stereo not shown) [3-mercaptobutyric acid]
Use as sole carbon source for growth (R. eutropha): not able to use

O=C(O)CCS [3-mercaptopropionic acid]
Use as sole carbon source for growth (R. eutropha): not able to use
Concentration in the medium above which growth was impaired (R. eutropha; mineral salts medium plus readily utilized carbon source such as gluconic acid, R. eutropha and other bacteria): higher than 0.1 % (w/v)

propylthiopropionic acid [PTP]
Growth on MSM agar plates (P. putida; 0.2% (w/v)): −
Growth on MSM agar plates (P. mendocina; 0.2% (w/v)): −
Growth on MSM agar plates (P. aeruginosa; 0.2% (w/v)): −
Growth on MSM agar plates (P. oleovorans; 0.2% (w/v)): −
Use as sole carbon source for growth (Pseudomonas strains): not used by any bacterium for growth

CCCCSCCCCC(=O)O [BTV]
Growth on MSM agar plates (P. putida; 0.3% (w/v)): +*
Growth on MSM agar plates (P. mendocina; 0.3% (w/v)): +*
Growth on MSM agar plates (P. aeruginosa; 0.3% (w/v)): +*
Growth on MSM agar plates (P. oleovorans; 0.3% (w/v)): +*
Use as sole carbon source for growth (Pseudomonas strains): able to use
Concentration above which cell growth was impaired (Pseudomonas strains): > 0.4 % (w/v)

O=C(O)CCSCCC(=O)O [TDP, 3,3′-thiodipropionic acid]
Use as sole carbon source for growth (R. eutropha): not able to use
Concentration up to which no toxic effects on growth were exerted (R. eutropha; mineral salts medium plus readily utilized carbon source such as gluconic acid): ≤ 1.5 % (w/v)
